Assay results as given in patent US11124536B2, “Uridine nucleoside derivatives, compositions and methods of use” (Tufts University, priority 2013, dated 2021).
Entries after “also recorded” stand apart in the source; their conditions may differ. Each block holds one compound with its values, some of them ahead of it.

Columns and labels:
[1] = molecular target: T1, P2Y6 receptor (Homo sapiens, UniProt Q15077); assay: Activation of P2Y6 receptor: receptor-induced Ca2+ changes with fluo-4; assay type: cell-based
T1 construct: expressed in transfected cells; host or cells: 1321N1 human astrocytoma cells
Description: Synthetic ligands were tested for activation of P2Y6 receptor by measuring receptor induced Ca^2+ changes with the fluorescent Ca^2+ indicator fluo-4. 1321N1 human astrocytoma cell lines either expressing P2Y2, P2Y4 or P2Y6 receptors were plated into 24-well plates. Two days after plating, fluorometric measurements were made and responses of cells to a serial dilution of ligands were determined. P2Y6 receptor mediated Ca^2+ fluorescent change was determined by normalized accumulation of fluorescent change of 3 timepoints after ligand administration subtracted by value from ACSF control. Changes in fluorescent intensity were plotted corresponding to ligand concention in GraphPad. Dose-response curve and EC50 for each ligand was estimated using nonlinear curve fit and Sigmoidal dose-response analysis. […]
Synthetic ligands were tested for activation of P2Y6 receptor by measuring receptor induced Ca^2+ changes with the fluorescent Ca^2+ indicator fluo-4, and results are shown in FIG. 10(A)-(K). […] Two days after plating, fluorometric measurements were made and responses of cells to a serial dilution of ligands were determined. P2Y6 receptor mediated Ca^2+ fluorescent change was determined by normalized accumulation of fluorescent change of 3 timepoints after ligand administration subtracted by value from ACSF control. […]

[2] = test system: PSAPP mice; assay: Postmortem immunohistochemistry of amyloid beta plaque load in cortex and hippocampus; assay type: in vivo
Description: Mice were perfused transcardially with 4% paraformaldehyde and 40 μm Coronal sections were collected. Sections were sequentially incubated in 0.3% H2O2 for 10 minutes, blocking solution for 2 hrs, blocking solution containing the primary antibody (rabbit anti-beta1-42; rabbit anti-beta1-40, from Chemicon International and rat anti-CD45) for 48 hours at 4° C., and blocking solution containing biotinylated antibody or fluorescently-labeled antibody for 2 hours at room temperature. Sections were visualized in a bright field microscope or a confocal microscope, and the optical density was obtained using MetaMorph software.
To generate these graphs showing plaque load, mice were euthanized, brain sections cut and antibodies directed against Aβ 42 were used to disclose Aβ plaques. Images were acquired digitally and an algorithm was applied to threshold the image so that plaques were isolated from the background. The algorithm then calculated the percent area of the field of view occupied by the plaques.
Brain samples were collected for Abeta analysis with immunostaining. Brains samples were collected after transcardial perfusion with phosphate buffer and 4% paraformaldehyde. Floating brain sections (40 micron) were collected using a microtome. Immunostaining for Aβ40 and Aβ42 were performed according to previously established protocol. Images with DAB staining were collected with brightfield microscopy and analyzed with ImageJ Macro. All data analysis and statistics were performed in GraphPad Prism 6.0.

[3] = test system: PSAPP mice; assay: Contextual fear conditioning test (freezing %); assay type: in vivo
Description: On day one, animals were trained in a fear conditioning apparatus for a total of 7 minutes with a two-pairing paradigm of cue and mild foot shock (a 30-s acoustic-conditioned stimulus, 80 dB; a 2-s shock stimulus, 0.5 mA). To evaluate contextual fear learning, the animals were returned to the training context 24 hours post-training, and freezing behavior was scored for 5 minutes. Freezing behavior was monitored by MotorMonitor (Hamilton Kinder) and scored every 5 seconds.
This represents a decrease in the cognitive impairment observed in the untreated mice.

[4] = test system: human THP-1 cells; assay: Cytokine release from THP-1 cells into culture medium (multiplex cytokine analysis); assay type: cell-based
Description: THP-1 cells, a human cell line derived from monocytes, were treated in vitro with vehicle, the P2Y6 receptor antagonist MRS 2578, or compound 5, singly or in combination. THP-1 cells were seeded in 24 well plates at a density of 4×10^5 cells/well in culture medium for 24 hours. Thereafter, vehicle, compound 5, or MRS 2578 (singly or in combination) were added to the cultures for 24 hours. Subsequently the culture medium was aspirated and subjected to multiplex cytokine analysis. Data are presented as means+/−sem. MRS 2578 has a molecular weight of about 472 and is also described using CAS number 711019-86-2.

[5] = test system: PSAPP mice; assay: Two-photon in vivo imaging of methoxyX04-labeled amyloid plaques in barrel cortex; conditions: UDP vs ACSF
Description: In this study, PSAPP mice were anesthetized using isoflurane and a thin-skull preparation was used to minimize the surface damage. Amyloid plaques were visualized with methoxyX04 labeling and blood plasma was labeled with Rhodamine dextran to facilitate re-localization of the same imaging area. Stack images were obtained using a two-photon system (Prairie Technologies) with excitation at 850 nm. The emission was detected by external photomultiplier tubes (525/70; DLCP 575; 607/45 nm).
Animals were anesthetized and immobilized in a stereotaxic frame. For each injection, 1 μl of 10 mM UDP or other suitable compounds in artificial cerebrospinal fluid (ACSF) as the vehicle were injected intraventricularly using the following coordinates: AP 0.2 mm, ML 1 mm, and DV 2.2 mm.
To evaluate the effect of UDP on plaque burden, two-photon microscopy was used to assess the amyloid plaques in the barrel cortex in living PSAPP mice. Amyloid plaques were stained by systemically administered methoxy-X04. One day prior to imaging, PSAPP mice were injected with methoxyX04 to label the amyloid plaques. On the imaging day, to facilitate the re-location of the same imaging area, blood plasma was labeled with Rhodamine dextran. Images were obtained from the same start- and end-point to ensure the same image volume. […]

[6] = test system: PSAPP mice; assay: Hippocampal long-term potentiation (LTP) recording, CA1; assay type: in vivo
Description: Hippocampal slices (350 μm thick) were prepared from 6-month-old PSAPP mice. Baseline responses were obtained every 10 seconds and Input-output (I/O) curves, paired-pulse modification and LTP were successively measured. The stimulation intensity was set to a level that gives a value of 30% of the maximum obtained. LTP were induced by high frequency stimulation (HFS, 100 pulses at 100 Hz, four times) or by theta-burst stimulation (TBS, 10 bursts at 5 Hz, repeated 10 times in 15 s intervals).
Accumulated evidence has shown that amyloid peptides naturally secreted or isolated from Alzheimer's brains impair synaptic plasticity, especially hippocampal long-term potentiation (Walsh et al., 2002). Therefore, we further performed LTP recordings in PASPP mice and investigated whether P2Y6 receptor-mediated plaque clearance affects synaptic plasticity. […] First, it was observed that LTP at the schaffer collateral synapse within the CA1 region was depressed in PSAPP mice, as compared with littermates (FIG. 8(A)).

T1 sequence (Q15077 whole entry): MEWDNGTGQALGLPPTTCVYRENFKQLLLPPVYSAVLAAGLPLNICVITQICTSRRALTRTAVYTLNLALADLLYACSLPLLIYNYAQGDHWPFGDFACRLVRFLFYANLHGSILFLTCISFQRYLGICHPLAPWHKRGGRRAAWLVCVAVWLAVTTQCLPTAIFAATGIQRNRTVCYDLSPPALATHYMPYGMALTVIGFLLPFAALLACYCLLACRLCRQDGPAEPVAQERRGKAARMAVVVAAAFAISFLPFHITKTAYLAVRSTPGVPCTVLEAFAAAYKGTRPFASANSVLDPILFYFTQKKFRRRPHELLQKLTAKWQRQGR

- elevating Ca2+ levels in cells expressing P2Y6 receptors ([1]; 1321N1 human astrocytoma cells expressing P2Y6): only effective
Structure (SMILES): O=c1ccn([C@@H]2O[C@H](COP(=O)(O)OP(=O)(O)O)[C@@H](O)[C@H]2O)c(=O)n1Cc1noc2ccccc12

Structure (SMILES): O=C(Cn1c(=O)ccn([C@@H]2O[C@H](COP(=O)(O)OP(=O)(O)O)[C@@H](O)[C@H]2O)c1=O)c1ccccc1 [3-phenacyl-UDP, reference compound]
- effects on the efficacy endpoint at the higher dose ([2]; 1 mg/kg, one week of daily treatment): smaller effects
- β1-40 staining after treatment stopped ([2]; 6 consecutive days i.p. then stopped for 2 weeks (6+2 weeks group), level still lower than saline vehicle): rebounded
- immunoreactivity of β1-40 in cortex ([2]; i.p. for 4 and 6 consecutive days, FIG. 6A): significantly decreased
- immunoreactivity of β1-40 in hippocampus ([2]; i.p. for 4 and 6 consecutive days, FIG. 6B): significantly decreased
- total freezing percentage in context test ([3]; chronic injection, two different doses): increased
- memory deficit (contextual fear conditioning) compared to vehicle ([3]; one week treatment with 1 μg/kg, FIG. 9C): rescued the memory deficit

Structure (SMILES): S=C=Nc1cccc(NC(=S)NCCCCNC(=S)Nc2cccc(N=C=S)c2)c1 [MRS 2578]
- effect of antagonist on Ca2+ signals elevated by the sodium salt of the diphosphate derivative of compound 5 ([1]; P2Y6 receptor expressing 1321N1 cells): attenuated
- release of fractalkine, PDGF-BB, and IL-7 (concentration in culture medium) ([4]; 24 hours treatment vs vehicle, FIG. 25): increased
- release of IL-7 from human THP-1 cells ([4]; MRS 2578 alone, 24 hours, FIG. 26): increased
- effect of co-treatment on the decrease of IL-7/cytokine release caused by compound 5 ([4]; compound 5 plus MRS 2578, FIG. 26): blocked; also recorded: abrogated

Structure (SMILES): O=c1ccn([C@@H]2O[C@H](COP(=O)(O)OP(=O)(O)O)[C@@H](O)[C@H]2O)c(=O)[nH]1 [UDP, uridine diphosphate]
- day 4/day 1 ratios of plaque load ([5]; FIG. 2D): significant reductions
- number of plaques (day 4/day 1 ratios) ([5]; FIG. 2E): significant reductions
- decrease in plaque load in the cortex, β1-42 antibody ([2]; acute UDP i.c.v., P<0.01): 48%
- decrease in plaque load in the hippocampus, β1-42 antibody ([2]; acute UDP i.c.v., P<0.05): 47%
- decrease in plaque load in the hippocampus, β1-40 antibody ([2]; acute UDP i.c.v., p<0.01): 62%
- decrease in plaque load in the cortex, β1-40 antibody ([2]; acute UDP i.c.v., p<0.05): 60%
- freezing behavior compared to ACSF treatment ([3]; UDP-treatment 3 days prior to the test, FIG. 7C): significantly improved
- LTP deficit at schaffer collateral synapse, CA1 ([6]; acute UDP vs ACSF, HFS, FIG. 8B): reversed
- field excitatory postsynaptic potential (fEPSP), last 15 min potentiation ([6]; acute UDP, comparable to littermates, FIG. 8C): significant increase
